What was measured:
IL-5 = assay: ELISA of IL-5 in supernatant of EL-4 T lymphoma cells; format: cell-based, mouse; details: EL-4 cells
Experimental: First, in an incubator containing 5 vol % of CO2 at 37° C., EL-4 mouse T lymphoma cells (commercially available from ATCC, Manassas, Va., America) were cultured in the DMEM culture medium (containing 10 wt % of thermally deactivated FBS), and were sub-cultured at a ratio of 1:3.
Then, at a density of 5×10^5 counts/ml, the T lymphoma cells were bred in a six-well culture dish, and at the 0th minute, brazilin of different concentrations (0.3, 1, 3, 10, or 30 micromole (μM)) was added into the cell culture solution at an amount of 1 μl/ml-cell culture solution. Then, the cells were put into the incubator to be cultured therein. […] During the process of cell culture, the trypan blue exclusion assay was employed to observe effect of the brazilin on the cell viability, results of which are shown in Table 1 and FIG. 1.
At 4° C., the T lymphoma cells obtained from Experiment A were centrifugally rotated at a rotational speed of 1000 rpm and at 4° C. for 5 minutes, and the supernatant was collected and analyzed for cytokines.
An enzyme-linked immunosorbent assay (ELISA) kit (commercially available from R&D Systems, Inc., America) was used to analyze the expression of IFN-γ, IL-4, IL-5, and eotaxin cytokines in the aforesaid supernatant, results of which are shown in Table 2, Table 3, FIG. 2, and FIG. 3.
In Experiment B and the following Experiment C, all experimental data are presented in form of “mean±standard deviation”, and statistical discrepancy was analyzed by means of the One-way ANOVA and Newman-keuls post-hoc tests, in which it is considered that there is statistical discrepancy if p<0.05.

GATA-3 mRNA = assay: Real-time PCR of GATA-3 mRNA in EL-4 T lymphoma cells; format: cell-based, mouse; details: for Expression level of GATA-3 mRNA: PMA + cAMP stimulated EL-4 cells, corrected to HPRT
Experimental: (§1) Then, at a density of 5×10^5 counts/ml, the T lymphoma cells were bred in a six-well culture dish, and at the 0th minute, brazilin of different concentrations (0.3, 1, 3, 10, or 30 micromole (μM)) was added into the cell culture solution at an amount of 1 μl/ml-cell culture solution. Then, the cells were put into the incubator to be cultured therein. 30 minutes later, at an amount of 1 μl/ml-cell culture solution, 5 μg/ml PMA and cAMP at a 250 mmol concentration were added to the cell culture solution to stimulate the expression of IL-4 and IL-5 of the T lymphoma cells. During the process of cell culture, the trypan blue exclusion assay was employed to observe effect of the brazilin on the cell viability, results of which are shown in Table 1 and FIG. 1.
(§2) Expression of mRNA of IL-4, IL-5, GATA-3, c-maf, and T-bet were analyzed in a quantitative way through real-time polymerase chain reaction (PCR) by extracting RNA in the cells obtained in Experiment A (using an RNA purifying kit), converting the RNA into cDNA through reverse transcription, and using an ABI PRISM 7700 sequence detector (Applied Biosystems, Foster City, Calif., America) to analyze the gene expression of mRNA. The PCR was carried out under the following conditions: 50° C., 2 minutes; 95° C., 10 minutes; 60° C., 1 minute; then repeating this cycle forty times. A threshold cycle (or referred to as Ct) was used to represent the expression level of each gene, and an expression level of hypoxanthine-guanine phosphoribosy transferase (HPRT) genes of the endogenous control group was used for correction of the expression level of mRNA.

c-maf mRNA = assay: Real-time PCR of c-maf mRNA in EL-4 T lymphoma cells; format: cell-based, mouse; details: for Expression level of c-maf mRNA: PMA + cAMP stimulated EL-4 cells, corrected to HPRT
Experimental: as §1, §2

IFN-γ = assay: ELISA of IFN-γ in bronochial alveolar lavage fluid, mice with asthma (OVA); format: in vivo, BALB/c mice; details: for IFN-γ concentration (pico-gram/ml): i.p. or i.t., OVA-sensitized BALB/c mice
Experimental: In Example 2, mice with asthma were used to conduct in vivo experiments, and ovalbumin (OVA) was used as an allergen.
The mice were sensitized (or challenged) according to the steps shown in FIG. 9 (see Lee et al., Lentiviral-mediated GATA-3 RNAi decreases allergic airway inflammation and hyperresponsiveness. Molecular Therapy, 2008; 16:60-65, which is incorporated herein in its entirety by reference). First, 50 μg OVA (using 2 mg alumina (Alum, Alumlmuject, Pierce Chemical, Rockford, Ill., USA) as an adjuvant) was injected into six to eight-week-old BALB/c female mice (from National Laboratory Animal Center, Taiwan) by intraperitoneal injection (i.p.). At 0th, 14th, and 28th day, the mice were injected with OVA at the same dosage. Before the administration of OVA at the forty-first and the forty-second days, different dosages of brazilin (high dose: 430 μg/mice; low dose: 43 μg/mice) were administrated to the mice by intraperitoneal injection (i.p.) or intratracheal instillation (i.t.). During the fortieth to the forty-second days, 100 μg OVA was dissolved in 40 μl PBS, and was administrated to the mice by intranasal instillation (i.n.) (once everyday, for three days). At the forty-third day, airway hyperresponsiveness of the mice was observed. […]
In Experiment D, after 24 hours from the last administration of OVA into the noses of the mice, the mice were sacrificed, and the blood was collected from the orbital cavities of the mice. […] Cells obtained after the centrifugation were re-suspended in a 1 ml HBSS buffer solution, and the total cell number was counted with a hemocytometer.
The bronochial alveolar lavage fluid collected in Experiment E was centrifuged at 4° C. and with a revolution speed of 400 g for 10 minutes. After the supernatant was collected, the expression of eotaxin, IL-4, IL-5, and IFN-γ was analyzed with an ELISA kit (R&D Systems, Inc., USA). […]

Oc1ccc2c(c1)OC[C@]1(O)Cc3cc(O)c(O)cc3[C@H]21 [brazilin]
expression of protein of IL-5 cytokine (IL-5; result in words): inhibited | Concentration of IL-5 (pico-gram/ml) (IL-5; brazilin 0.3 μM + PMA + cAMP): 2480 ± 515.9 pico-gram/ml | Concentration of IL-5 (pico-gram/ml) (IL-5; brazilin 0.3 μM, no PMA + cAMP): 5.925 ± 3.462 pico-gram/ml | Concentration of IL-5 (pico-gram/ml) (IL-5; brazilin 1 μM + PMA + cAMP): 2580 ± 402.8 pico-gram/ml | Concentration of IL-5 (pico-gram/ml) (IL-5; brazilin 1 μM, no PMA + cAMP): 0.2422 ± 0.2422 pico-gram/ml | Concentration of IL-5 (pico-gram/ml) (IL-5; brazilin 3 μM + PMA + cAMP): 2345 ± 392.6 pico-gram/ml | Concentration of IL-5 (pico-gram/ml) (IL-5; brazilin 3 μM, no PMA + cAMP): 0.2422 ± 0.2422 pico-gram/ml | Concentration of IL-5 (pico-gram/ml) (IL-5; brazilin 10 μM + PMA + cAMP): 1809 ± 337.9 pico-gram/ml | Concentration of IL-5 (pico-gram/ml) (IL-5; brazilin 10 μM, no PMA + cAMP): 1.474 ± 0.9891 pico-gram/ml | Concentration of IL-5 (pico-gram/ml) (IL-5; brazilin 30 μM + PMA + cAMP): 1292 ± 531.6 pico-gram/ml | Concentration of IL-5 (pico-gram/ml) (IL-5; brazilin 30 μM, no PMA + cAMP): 0.0 ± 0.0 pico-gram/ml | expression of mRNA of transcription factor GATA-3 (GATA-3 mRNA; EL-4 cells, result in words): inhibited | Expression level of GATA-3 mRNA (GATA-3 mRNA; brazilin 0.3 μM): 3.960 ± 0.1234 | Expression level of GATA-3 mRNA (GATA-3 mRNA; brazilin 1 μM): 3.036 ± 0.5622 | Expression level of GATA-3 mRNA (GATA-3 mRNA; brazilin 3 μM): 2.663 ± 0.6056 | Expression level of GATA-3 mRNA (GATA-3 mRNA; brazilin 10 μM): 1.812 ± 0.1538 | Expression level of GATA-3 mRNA (GATA-3 mRNA; brazilin 30 μM): 1.434 ± 0.2530 | expression of mRNA of transcription factor c-maf (c-maf mRNA; EL-4 cells, result in words): inhibited | Expression level of c-maf mRNA (c-maf mRNA; brazilin 0.3 μM): 3.388 ± 0.2410 | Expression level of c-maf mRNA (c-maf mRNA; brazilin 1 μM): 3.318 ± 0.1177 | Expression level of c-maf mRNA (c-maf mRNA; brazilin 3 μM): 2.846 ± 0.2632 | Expression level of c-maf mRNA (c-maf mRNA; brazilin 10 μM): 1.826 ± 0.6278 | Expression level of c-maf mRNA (c-maf mRNA; brazilin 30 μM): 1.302 ± 0.1868 | effect on IFN-γ cytokine of Th1 cells (IFN-γ; BALB/c mice, result in words): no effect | IFN-γ concentration (pico-gram/ml) (IFN-γ; High dose (430 μg/mice)): 4.288 ± 0.868 pico-gram/ml | IFN-γ concentration (pico-gram/ml) (IFN-γ; Low dose (43 μg/mice)): 3.598 ± 1.218 pico-gram/ml
